Assay results taken from a compilation of properties of binary mixtures (doi:10.1016/j.molliq.2021.118393).

Assay: xn = mol fraction of the nth substance listed
Details: 100 kPa

| Structure (SMILES) | electrical conductivity (293.15 K, x2 = 0.333) [S/m] | speed of sound (293.15 K, x2 = 0.333) [m/s] | electrical conductivity (298.15 K, x2 = 0.333) [S/m] | speed of sound (298.15 K, x2 = 0.333) [m/s] | electrical conductivity (313.15 K, x2 = 0.333) [S/m] | speed of sound (313.15 K, x2 = 0.333) [m/s] | viscosity (313.15 K, x2 = 0.333) [mPa·s] | electrical conductivity (318.15 K, x2 = 0.333) [S/m] | speed of sound (318.15 K, x2 = 0.333) [m/s] | viscosity (318.15 K, x2 = 0.333) [mPa·s] | electrical conductivity (323.15 K, x2 = 0.333) [S/m] | speed of sound (323.15 K, x2 = 0.333) [m/s] | viscosity (323.15 K, x2 = 0.333) [mPa·s] | electrical conductivity (333.15 K, x2 = 0.333) [S/m] | speed of sound (333.15 K, x2 = 0.333) [m/s] | viscosity (333.15 K, x2 = 0.333) [mPa·s] | other results |
| --- | --- | --- | --- | --- | --- | --- | --- | --- | --- | --- | --- | --- | --- | --- | --- | --- | --- |
| O=C(O)CCl + CCC[N+](CCC)(CCC)CCC.[Br-] | 0.0435 | 1550.2 | 0.0673 | 1535.1 | 0.177 | 1491.4 | 45.76 | 0.228 | 1477.4 | 34.88 | 0.284 | 1463.4 | 27.18 | 0.407 | 1436.1 | 17.67 | viscosity (293.15 K, x2 = 0.333): 178.6 mPa·s; viscosity (298.15 K, x2 = 0.333): 119.4 mPa·s; electrical conductivity (303.15 K, x2 = 0.333): 0.0981 S/m; speed of sound (303.15 K, x2 = 0.333): 1520.3 m/s; viscosity (303.15 K, x2 = 0.333): 84.3 mPa·s |
| O=C(O)CCl + CCCC[N+](CCCC)(CCCC)CCCC.O=S(=O)([O-])O | 0.012 | 1539.9 | 0.0189 | 1523.1 | 0.0508 | 1475.5 | 176.3 | 0.0669 | 1460.9 | 132.2 | 0.0861 | 1446.5 | 101.9 | 0.133 | 1418.6 | 64.29 | electrical conductivity (293.15 K, x2 = 0.5): 0.0017 S/m; speed of sound (293.15 K, x2 = 0.5): 1623.8 m/s; electrical conductivity (298.15 K, x2 = 0.5): 0.0032 S/m; speed of sound (298.15 K, x2 = 0.5): 1594.7 m/s; electrical conductivity (303.15 K, x2 = 0.5): 0.0053 S/m; speed of sound (303.15 K, x2 = 0.5): 1569.4 m/s; electrical conductivity (308.15 K, x2 = 0.5): 0.0037 S/m; speed of sound (308.15 K, x2 = 0.5): 1547 m/s; electrical conductivity (318.15 K, x2 = 0.5): 0.0143 S/m; speed of sound (318.15 K, x2 = 0.5): 1509 m/s; viscosity (318.15 K, x2 = 0.5): 769 mPa·s; electrical conductivity (323.15 K, x2 = 0.5): 0.0226 S/m; speed of sound (323.15 K, x2 = 0.5): 1492.3 m/s; viscosity (323.15 K, x2 = 0.5): 546 mPa·s; electrical conductivity (328.15 K, x2 = 0.333): 0.108 S/m; speed of sound (328.15 K, x2 = 0.333): 1432.5 m/s; viscosity (328.15 K, x2 = 0.333): 81.5 mPa·s; electrical conductivity (328.15 K, x2 = 0.5): 0.0306 S/m; speed of sound (328.15 K, x2 = 0.5): 1476.3 m/s; viscosity (328.15 K, x2 = 0.5): 396 mPa·s |
